Measurements as given in patent publication US11957649B2, “Methods and pharmaceutical preparations for elevating ketone utilization” (GLYKON TECHNOLOGIES GROUP, LLC, priority 2020, dated 2024).

Experiments:
[1] = biological target: T1, pancreatic alpha-amylase (Homo sapiens, UniProt P04746); conditions: background statement, in vitro; cited from earlier work
T1 sequence (P04746 16-511): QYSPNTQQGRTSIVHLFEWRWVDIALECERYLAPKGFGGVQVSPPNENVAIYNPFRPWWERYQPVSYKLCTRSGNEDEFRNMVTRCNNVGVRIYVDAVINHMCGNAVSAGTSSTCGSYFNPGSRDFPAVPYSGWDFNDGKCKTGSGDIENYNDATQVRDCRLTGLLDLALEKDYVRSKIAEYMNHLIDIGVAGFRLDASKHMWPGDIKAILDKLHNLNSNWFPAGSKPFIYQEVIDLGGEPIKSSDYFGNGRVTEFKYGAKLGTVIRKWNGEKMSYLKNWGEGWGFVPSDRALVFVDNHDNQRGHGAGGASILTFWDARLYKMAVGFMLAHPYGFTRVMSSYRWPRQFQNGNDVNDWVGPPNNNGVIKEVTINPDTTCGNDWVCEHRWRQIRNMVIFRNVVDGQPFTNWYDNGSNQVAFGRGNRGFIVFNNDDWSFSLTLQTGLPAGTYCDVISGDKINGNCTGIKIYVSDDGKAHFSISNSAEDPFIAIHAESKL

[2] = test system: intestinal alpha-glucosidase; conditions: background statement, in vitro; cited from earlier work
[3] = fNIRS measurement of blood hemoglobin and oxygen saturation after oral administration; format: in vivo, human; conditions: overall statement on HCA administration
Procedure: Subjects 1-4 were orally administered the formulation of Example 1. The Subjects were given either one or two administrations of 8.33 ml of the aqueous formulation of Example 1 on an empty stomach, i.e. wherein with each 8.33 ml the subject received 2,500 mg of the potassium-magnesium (−)-hydroxycitric acid salt, corresponding to 1745 mg of (−)-hydroxycitric acid.
fNIRS testing (functional Near Infrared Spectroscopy) was used to measure blood hemoglobin and oxygen saturation. fNIRS can be used to determine real-time peripheral and cerebral hemodynamic responses. For example, relative changes in HbR (deoxygen saturation), HbO (oxygen saturation), and HbT (total hemoglobin concentration), etc. can be determined via application of Modified Beer Lambert Law. HbR, Hb=deoxygen saturation (shown as the thinnest and bottom dashed line in FIG. 1) HbO, HbO2=oxygen saturation (shown as the medium-thickness and middle line in FIG. 1) HbT=total hemoglobin concentration (shown as the darkest, thickest and top line in FIG. 1). On the graphs, time is in seconds.

[4] = Blood levels of biomolecules before and 90 minutes after administration; format: in vivo, human
Procedure: Subject 5 was a person, weighing approximately 285 pounds and with a normal fasting blood sugar level of 115-120. First, blood was drawn from Subject 5 and levels of various biomolecules were measured. Next, Subject 5 was administered 16.66 ml of the Example 1 formulation on an empty stomach, i.e. wherein with each 16.66 ml the subject received 5,000 mg of the potassium-magnesium (−)-hydroxycitric acid salt, corresponding to 3490 mg of (−)-hydroxycitric acid. 90 minutes after the administration, blood was drawn from Subject 5 and levels of the various biomolecules were remeasured.
Subject 6 was administered 16.66 ml of the Example 1 formulation on an empty stomach, i.e. wherein with each 16.66 ml the subject received 5,000 mg of the potassium-magnesium (−)-hydroxycitric acid salt, corresponding to 3490 mg of (−)-hydroxycitric acid. 90 minutes after the administration, blood was drawn from Subject 6 and levels of the various biomolecules were remeasured.

[5] = biological target: T2, ATP citrate lyase (Homo sapiens, UniProt P53396); conditions: background statement; cited from earlier work
T2 sequence (P53396 1-1101): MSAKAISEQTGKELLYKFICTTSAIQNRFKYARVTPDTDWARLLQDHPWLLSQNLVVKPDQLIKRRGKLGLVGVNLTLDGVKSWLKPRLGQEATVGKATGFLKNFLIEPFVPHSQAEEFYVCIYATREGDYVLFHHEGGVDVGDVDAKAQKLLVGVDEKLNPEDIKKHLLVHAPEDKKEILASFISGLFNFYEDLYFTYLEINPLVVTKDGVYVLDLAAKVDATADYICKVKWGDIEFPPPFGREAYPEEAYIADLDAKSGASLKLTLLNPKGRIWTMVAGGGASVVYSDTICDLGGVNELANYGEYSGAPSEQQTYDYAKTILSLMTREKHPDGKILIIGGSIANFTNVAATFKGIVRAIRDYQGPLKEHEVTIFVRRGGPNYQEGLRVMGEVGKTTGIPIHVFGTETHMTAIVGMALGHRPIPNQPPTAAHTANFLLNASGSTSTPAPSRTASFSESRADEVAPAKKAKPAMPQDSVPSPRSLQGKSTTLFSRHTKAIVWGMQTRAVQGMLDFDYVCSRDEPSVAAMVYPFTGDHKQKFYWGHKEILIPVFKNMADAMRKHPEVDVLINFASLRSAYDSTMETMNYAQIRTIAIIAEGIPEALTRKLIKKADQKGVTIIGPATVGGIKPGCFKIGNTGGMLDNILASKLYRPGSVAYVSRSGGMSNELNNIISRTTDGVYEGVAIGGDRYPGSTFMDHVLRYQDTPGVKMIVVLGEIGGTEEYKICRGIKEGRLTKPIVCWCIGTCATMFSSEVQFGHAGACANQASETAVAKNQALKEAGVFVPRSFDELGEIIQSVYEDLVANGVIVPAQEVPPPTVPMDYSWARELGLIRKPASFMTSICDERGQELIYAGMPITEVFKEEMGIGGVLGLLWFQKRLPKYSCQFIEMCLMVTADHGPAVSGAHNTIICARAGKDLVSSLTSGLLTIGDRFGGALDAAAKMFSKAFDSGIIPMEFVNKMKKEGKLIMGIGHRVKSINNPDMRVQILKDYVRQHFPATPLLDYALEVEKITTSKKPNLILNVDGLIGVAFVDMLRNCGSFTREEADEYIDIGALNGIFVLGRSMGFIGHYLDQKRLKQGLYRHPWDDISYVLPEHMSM

[6] = overall conclusion on HCA administration

For `O=C(O)C[C@](O)(C(=O)O)[C@H](O)C(=O)O` [(2S,3R)-HCA], the “inhibition of pancreatic alpha-amylase” value [1] is given as “inhibits” and the “inhibition of intestinal alpha-glucosidase” value [2] is given as “inhibits”.

In the case of `O=C(O)CC(O)(C(=O)O)C(O)C(=O)O` (stereo not shown) [HCA, 1,2-dihydroxypropane-1,2,3-tricarboxylic acid], the blood hemoglobin [3] is reported as “increased”, the oxygen saturation [3] is reported as “increased” and the “Ketones Result” value ([4]; Subject 5, 16.66 ml on empty stomach, 90 mins after administration, before (fasting) 0.6) is reported as 0.5. The cortisol [4, 6] was “decreased”, the levels of ketones [4, 6] was “relatively stable or slightly lower levels” and the triglycerides [4, 6] was “decreased”. For the same molecule, the glucose ([4]; overall conclusion on HCA administration, in some cases transient) was “increased” and the “inhibition of ATP citrate lyase” value [5] was “competitive inhibitor”.
